In ChEMBL document CHEMBL5338771, “Trioxacarcin A Interactions with G-Quadruplex DNA Reveal Its Potential New Targets as an Anticancer Agent” (J Med Chem, 2023):
Activity calls are given as the source filed them. The rule behind the calls is not given here.

Columns and labels:
Type in all cases: nucleic-acid assay
Quadruplex DNA [1] = assay: Binding affinity to c-MYC G4 quadruplex DNA (unknown origin) by 1D 1H-NMR analysis
Quadruplex DNA [2] = assay: Induction of DNA stabilization in abasic-basic RET G4 quadruplex DNA (unknown origin) assessed as melting temperature in 100 mM K+ buffer solution by DSC spectra analysis
Quadruplex DNA [3] = assay: Induction of DNA stabilization in free RET G4 quadruplex DNA (unknown origin) assessed as melting temperature in 100 mM K+ buffer solution by DSC spectra analysis
Quadruplex DNA [4] = assay: Covalent binding affinity to RET G4 quadruplex DNA (unknown origin) by measuring molecular weight for complex formation by ESI mass spectrum analysis
Quadruplex DNA [5] = assay: Induction of DNA stabilization in RET G4 quadruplex DNA (unknown origin) containing 2'-F base G4 assessed as melting temperature (reference value: 71.99 degreeC)
Quadruplex DNA [6] = assay: Covalent binding affinity to RET G4 quadruplex DNA (unknown origin) assessed as alkylation at G14 base by DNA cleavage assay
Quadruplex DNA [7] = assay: Covalent binding affinity to RET G4 quadruplex DNA (unknown origin) assessed as alkylation at G6 base by DNA cleavage assay
Quadruplex DNA [8] = assay: Covalent binding affinity to RET G4 quadruplex DNA (unknown origin) assessed as alkylation at G4 base at 98 degC for 5 mins by DNA cleavage assay
Quadruplex DNA [9] = assay: Covalent binding affinity to RET G4 quadruplex DNA (unknown origin) assessed as stable complex formation measured after 9 days by mass spectrum analysis; conditions: time 9.0 day
Quadruplex DNA [10] = assay: Binding affinity to RET G4 quadruplex DNA (unknown origin) by measuring chemical shift change for 0 to 21 days by 1D 1H-NMR analysis; conditions: time 0-21 day
Quadruplex DNA [11] = assay: Covalent binding affinity to RET G4 quadruplex DNA (unknown origin) assessed as stable complex formation by measuring molecular weight peak after 19 days by mass spectrum analysis; conditions: time 19.0 day

## COc1c2c(c(O)c3c4c(c(C)cc13)C1O[C@@]3(C(OC)OC)OC1[C@](O[C@H]1C[C@@H](O)[C@@](O)(C(C)=O)[C@H](C)O1)(O4)C31CO1)C(=O)[C@@H](O)C[C@@H]2OC1C[C@](C)(O)[C@@H](OC(C)=O)[C@@H](C)O1 (stereo partly specified)
Quadruplex DNA [1]
  Activity: Active
Quadruplex DNA [2]
  Tm: 78 °C
Quadruplex DNA [3]
  Tm: 91 °C
Quadruplex DNA [4]
  Activity: 6450 Da
Quadruplex DNA [5]
  Tm: 74.7 °C
Quadruplex DNA [6]
  Activity: inactive
Quadruplex DNA [7]
  Activity: inactive
Quadruplex DNA [8]
  Activity: Active
Quadruplex DNA [9]
  Activity: Active
Quadruplex DNA [10]
  Activity: Active
Quadruplex DNA [11]
  Activity: 7330 Da
